We go through 2 compounds from US20250114374A1, “BCL-2 INHIBITORS” (Newave Pharmaceutical Inc., priority 2021, published 2025).

The subject of series [1] is RS4; 11 with G101V mutation. As to the kind of experiment: In vitro anti-proliferation assay (ATPlite luminescence) in BCL-2-dependent ALL cell line RS4;11 with G101V mutation. In kind it is cell-based. The conditions noted are these: Homo sapiens, RS4-11, 72 h; read-out: RS411-G101V IC50. The gist of the method:
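RS4;11 G101V cells at about 1×10^4 per well were exposed to a range of compound concentrations for about 72 h in medium with 10% FBS. Cellular ATP was measured by ATPlite luminescence after lysis, and IC50 was derived from the dose-response.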
(In general: ATP-based viability assays read luminescence as a measure of living cells.)

Another series relates to RS4; 11 cells. The conditions noted are these: cited from earlier work.
The test system of a further series is CLL. The note with it: read-out: average EC50, apoptosis; cited from earlier work.
For the next series, the system named is RS4; 11 xenografts. The conditions noted are these: single dose of 100 mg/kg; cited from earlier work.
Series [2] relates to DoHH2, Granta-519 xenografts. The note with it: single agent or in combination with Bendamustine and other agents; cited from earlier work.
In series [3] the test system is CLL who have 17p deletion. The note with it: Human Phase I and II, CLL with 17p deletion; cited from earlier work.
The target in another series is Mcl-1 (Homo sapiens, UniProt Q07820). The note with it: cited from earlier work.
Chain of Mcl-1 (Q07820 whole entry): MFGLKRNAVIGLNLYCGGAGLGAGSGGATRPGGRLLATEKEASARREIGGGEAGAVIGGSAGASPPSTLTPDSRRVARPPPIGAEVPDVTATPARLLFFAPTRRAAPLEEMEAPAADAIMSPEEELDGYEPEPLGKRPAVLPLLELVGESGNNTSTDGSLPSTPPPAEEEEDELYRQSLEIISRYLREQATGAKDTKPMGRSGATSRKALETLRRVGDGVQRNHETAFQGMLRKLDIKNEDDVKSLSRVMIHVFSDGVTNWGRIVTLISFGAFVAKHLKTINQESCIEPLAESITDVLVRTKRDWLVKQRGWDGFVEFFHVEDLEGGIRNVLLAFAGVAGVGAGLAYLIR
For series [4] the following is noted: cited from earlier work.
Series [5] deals with cells from lymphoma and small-cell lung carcinoma lines, primary patient-derived cells. The conditions noted are these: single agent; cited from earlier work.

Molecules are shown by their SMILES.

In the case of `CC1(C)CCC(CN2CCN(c3ccc(C(=O)NS(=O)(=O)c4ccc(NCC5CCOCC5)c([N+](=O)[O-])c4)c(Oc4cnc5[nH]ccc5c4)c3)CC2)=C(c2ccc(Cl)cc2)C1` [ABT-199], the IC50 in [1] worked out at 783 nM. For the same compound, the EC50 in the series on RS4; 11 cells (RS4, 11 cells) is 8 nM. Besides, in the series on RS4; 11 cells (cytochrome c release, caspase activation, accumulation of sub-G0/G1 DNA), the “apoptosis in RS4; 11 cells” value is reported as “rapid apoptosis”. Further, the EC50 in the series on CLL was 3 nM. Also, in the series on RS4; 11 xenografts, the “maximal tumor growth inhibition” value is recorded as 95% and the tumor growth delay is 152%. The xenograft growth result in series [2] was “inhibits xenograft growth”. The clinical efficacy entry in series [3] was “highly efficacious”. For the same compound, the “activity to Mcl-1” value on Mcl-1 was “no activity”.
In the case of `CN(C)CC[C@H](CSc1ccccc1)Nc1ccc(S(=O)(=O)NC(=O)c2ccc(N3CCN(Cc4ccccc4-c4ccc(Cl)cc4)CC3)cc2)cc1[N+](=O)[O-]` [ABT-737], the aqueous solubility result in series [4] is reported as “low”. Moreover, the cell killing result in series [5] was “single-agent-mechanism-based killing”.

One may read the IC50 as the concentration needed to halve the response being measured. As usually defined, the EC50 is the concentration giving half of the maximal effect.
